Type in all cases: functional, organism-based
For one experiment, the system named is Rhizoctonia solani. In words: Antifungal activity against Rhizoctonia solani Kuhn by mycelium growth rate test.
A further experiment relates to Botrytis cinerea. In words: Antifungal activity against Botryotinia fuckeliana by mycelium growth rate test.
The test system of a further experiment is Pyricularia oryzae. In words: Antifungal activity against Magnaporthe oryzae by mycelium growth rate test.
The next experiment concerns Phomopsis asparagi. In words: Antifungal activity against Phomopsis asparagi by mycelium growth rate test.
In a further experiment the test system is Sclerotinia sclerotiorum. In words: Antifungal activity against Sclerotinia sclerotiorum by mycelium growth rate test.

The structures appear in SMILES notation. Converted amounts (≈) assume the structure as drawn.

The EC50 is the midpoint of the concentration-response curve. As for `O=C1CCCCCCCCCCC2(CCCN1)N=N/C(=N/c1ccccc1)S2` (stereo not given), the EC50 in the experiment with Rhizoctonia solani turned out to be 42.1 µg/mL (≈ 105 µM); with Botrytis cinerea, 5.01 µg/mL (≈ 12.5 µM); in the experiment on Pyricularia oryzae it was 41.5 µg/mL (≈ 104 µM); with Phomopsis asparagi, 14.2 µg/mL (≈ 35.4 µM); with Sclerotinia sclerotiorum it was 9.92 µg/mL (≈ 24.8 µM).
For `Cc1ccccc1/N=C1/N=NC2(CCCCCCCCCCC(=O)NCCC2)S1` (stereo not given) the same measures were 125 µg/mL (≈ 301 µM), 4.21 µg/mL (≈ 10.2 µM), 78.4 µg/mL (≈ 189 µM), 73.8 µg/mL (≈ 178 µM) and 375 µg/mL (≈ 905 µM).
The like results for `Cc1cccc(/N=C2/N=NC3(CCCCCCCCCCC(=O)NCCC3)S2)c1` (stereo not given) were, in that order, 30.7 µg/mL (≈ 74.1 µM), 6.42 µg/mL (≈ 15.5 µM), 63.2 µg/mL (≈ 152 µM), 9.67 µg/mL (≈ 23.3 µM) and 4.42 µg/mL (≈ 10.7 µM).
For `Cc1ccc(/N=C2/N=NC3(CCCCCCCCCCC(=O)NCCC3)S2)cc1` (stereo not given), the EC50 was 71.8 µg/mL (≈ 173 µM) in the experiment with Rhizoctonia solani; 25.1 µg/mL (≈ 60.5 µM) in the experiment with Botrytis cinerea; 139 µg/mL (≈ 335 µM) with Pyricularia oryzae; 14.5 µg/mL (≈ 35 µM) in the experiment with Phomopsis asparagi; 34.1 µg/mL (≈ 82.2 µM) with Sclerotinia sclerotiorum.
With `O=C1CCCCCCCCCCC2(CCCN1)N=N/C(=N/c1ccccc1Cl)S2` (stereo not given), the EC50 came out at 31.8 µg/mL (≈ 73.1 µM) in the experiment on Rhizoctonia solani; 14.9 µg/mL (≈ 34.2 µM) in the experiment with Botrytis cinerea; 41.5 µg/mL (≈ 95.4 µM) in the experiment on Pyricularia oryzae; 24.5 µg/mL (≈ 56.3 µM) with Phomopsis asparagi; 242 µg/mL (≈ 555 µM) with Sclerotinia sclerotiorum.
Regarding `O=C1CCCCCCCCCCC2(CCCN1)N=N/C(=N/c1ccc(Cl)cc1)S2` (stereo not given), the EC50 with Rhizoctonia solani is 39.5 µg/mL (≈ 90.8 µM); with Botrytis cinerea, 18.7 µg/mL (≈ 42.9 µM); in the experiment with Pyricularia oryzae, 0.054 µg/mL (≈ 0.124 µM); in the experiment on Phomopsis asparagi it was 102 µg/mL (≈ 234 µM); in the experiment on Sclerotinia sclerotiorum, 48.2 µg/mL (≈ 111 µM).
For the compound `O=C1CCCCCCCCCCC2(CCCN1)N=N/C(=N/c1ccccc1Br)S2` (stereo not given), the EC50 in the experiment on Rhizoctonia solani was found to be 56.1 µg/mL (≈ 117 µM); in the experiment on Botrytis cinerea it was 19.9 µg/mL (≈ 41.4 µM); in the experiment with Pyricularia oryzae it was 57.6 µg/mL (≈ 120 µM); with Phomopsis asparagi, 60.3 µg/mL (≈ 126 µM); with Sclerotinia sclerotiorum, 533 µg/mL (≈ 1110 µM).
With `COc1ccccc1/N=C1/N=NC2(CCCCCCCCCCC(=O)NCCC2)S1` (stereo not given), the EC50 with Rhizoctonia solani turned out to be 37.9 µg/mL (≈ 88 µM); in the experiment with Botrytis cinerea, 21.8 µg/mL (≈ 50.7 µM); with Pyricularia oryzae, 398 µg/mL (≈ 924 µM); in the experiment with Phomopsis asparagi, 517 µg/mL (≈ 1200 µM); in the experiment with Sclerotinia sclerotiorum it was 21.1 µg/mL (≈ 49 µM).
Turning to `COc1ccc(/N=C2/N=NC3(CCCCCCCCCCC(=O)NCCC3)S2)cc1` (stereo not given), the EC50 in the experiment with Rhizoctonia solani was determined as 93 µg/mL (≈ 216 µM); in the experiment on Botrytis cinerea it was 6.47 µg/mL (≈ 15 µM); in the experiment with Pyricularia oryzae, 57.8 µg/mL (≈ 134 µM); in the experiment on Phomopsis asparagi, 20.6 µg/mL (≈ 47.7 µM); in the experiment on Sclerotinia sclerotiorum, 87.2 µg/mL (≈ 203 µM).
For `Cc1cccc(/N=C2/N=NC3(CCCCCCCCCCC(=O)NCCC3)S2)c1C` (stereo not given) the same measures were 22.4 µg/mL (≈ 52.2 µM), 22.6 µg/mL (≈ 52.7 µM), 199 µg/mL (≈ 465 µM), 14.8 µg/mL (≈ 34.6 µM) and 36.5 µg/mL (≈ 85.2 µM).
With `Cc1ccc(/N=C2/N=NC3(CCCCCCCCCCC(=O)NCCC3)S2)c(C)c1` (stereo not given), the EC50 with Rhizoctonia solani came to 26.8 µg/mL (≈ 62.4 µM); in the experiment with Botrytis cinerea it was 9.63 µg/mL (≈ 22.5 µM); in the experiment with Pyricularia oryzae, 30.9 µg/mL (≈ 72.1 µM); in the experiment with Phomopsis asparagi, 5.26 µg/mL (≈ 12.3 µM); in the experiment on Sclerotinia sclerotiorum, 55.7 µg/mL (≈ 130 µM).
Take `Cc1ccc(C)c(/N=C2/N=NC3(CCCCCCCCCCC(=O)NCCC3)S2)c1` (stereo not given): the EC50 with Rhizoctonia solani was found to be 5.62 µg/mL (≈ 13.1 µM); in the experiment with Botrytis cinerea it was 18.6 µg/mL (≈ 43.3 µM); in the experiment with Pyricularia oryzae, 86.6 µg/mL (≈ 202 µM); with Phomopsis asparagi, 16.4 µg/mL (≈ 38.3 µM); in the experiment on Sclerotinia sclerotiorum, 34.3 µg/mL (≈ 80 µM).
For `O=C1CCCCCCCCCCC2(CCCN1)N=N/C(=N/c1ccc(Cl)c(Cl)c1)S2` (stereo not given) the same measures were 36.8 µg/mL (≈ 78.4 µM), 34.2 µg/mL (≈ 72.9 µM), 0.72 µg/mL (≈ 1.53 µM), 9.02 µg/mL (≈ 19.2 µM) and 15 µg/mL (≈ 32 µM).
For `O=C1CCCCCCCCCCC2(CCCN1)N=N/C(=N/c1cc(Cl)ccc1Cl)S2` (stereo not given) the same measures were 41.8 µg/mL (≈ 89 µM), 29.6 µg/mL (≈ 63 µM), 1.11 µg/mL (≈ 2.36 µM), 222 µg/mL (≈ 472 µM) and 109 µg/mL (≈ 233 µM).
As to `O=C1CCCCCCCCCCC2(CCCN1)N=N/C(=N/c1cccc3ccccc13)S2` (stereo not given), the EC50 in the experiment with Rhizoctonia solani was 17.8 µg/mL (≈ 39.5 µM); in the experiment on Botrytis cinerea it was 15.7 µg/mL (≈ 34.9 µM); with Pyricularia oryzae, 196 µg/mL (≈ 434 µM); with Phomopsis asparagi, 46.1 µg/mL (≈ 102 µM); in the experiment with Sclerotinia sclerotiorum, 767 µg/mL (≈ 1700 µM).
As for `O=C1CCCCCCCCCCC2(CCCN1)N=N/C(=N/Cc1ccccc1)S2` (stereo not given), the EC50 with Rhizoctonia solani was determined as 23.5 µg/mL (≈ 56.7 µM); in the experiment with Botrytis cinerea, 14.4 µg/mL (≈ 34.8 µM); in the experiment on Pyricularia oryzae, 117 µg/mL (≈ 282 µM); with Phomopsis asparagi it was 21.3 µg/mL (≈ 51.4 µM); in the experiment with Sclerotinia sclerotiorum, 8.32 µg/mL (≈ 20.1 µM).
As to `O=C1CCCCCCCCCCC2(CCCO1)N=N/C(=N/c1ccccc1Cl)S2` (stereo not given), the EC50 in the experiment with Rhizoctonia solani was found to be 159 µg/mL (≈ 365 µM); in the experiment on Botrytis cinerea, 43.8 µg/mL (≈ 100 µM); with Pyricularia oryzae, 211 µg/mL (≈ 485 µM); in the experiment with Phomopsis asparagi, 116 µg/mL (≈ 267 µM); with Sclerotinia sclerotiorum, 169 µg/mL (≈ 388 µM).
Turning to `O=C1CCCCCCCCCCC2(CCCO1)N=N/C(=N/c1ccc(Cl)cc1)S2` (stereo not given), the EC50 in the experiment on Rhizoctonia solani was 126 µg/mL (≈ 290 µM); with Botrytis cinerea it was 49.9 µg/mL (≈ 115 µM); in the experiment with Pyricularia oryzae, 338 µg/mL (≈ 776 µM); in the experiment on Phomopsis asparagi it was 42.5 µg/mL (≈ 97.4 µM); with Sclerotinia sclerotiorum, 59.9 µg/mL (≈ 137 µM).
Take `O=C1CCCCCCCCCCC2(CCCO1)N=N/C(=N/c1ccccc1Br)S2` (stereo not given): the EC50 is 208 µg/mL (≈ 432 µM) in the experiment with Rhizoctonia solani; 36.4 µg/mL (≈ 75.8 µM) with Botrytis cinerea; 246 µg/mL (≈ 512 µM) in the experiment with Pyricularia oryzae; 53.5 µg/mL (≈ 111 µM) in the experiment on Phomopsis asparagi; 205 µg/mL (≈ 426 µM) in the experiment on Sclerotinia sclerotiorum.
Consider `O=C1CCCCCCCCCCC2(CCCO1)N=N/C(=N/c1ccc(Br)cc1)S2` (stereo not given), for which the EC50 was 17.1 µg/mL (≈ 35.6 µM) in the experiment on Rhizoctonia solani; 49.9 µg/mL (≈ 104 µM) with Botrytis cinerea; 338 µg/mL (≈ 704 µM) with Pyricularia oryzae; 29.2 µg/mL (≈ 60.8 µM) in the experiment with Phomopsis asparagi; 38.3 µg/mL (≈ 79.7 µM) with Sclerotinia sclerotiorum.
The like results for `Cc1ccc(C)c(/N=C2/N=NC3(CCCCCCCCCCC(=O)OCCC3)S2)c1` (stereo not given) were, in that order, 422 µg/mL (≈ 982 µM), 126 µg/mL (≈ 294 µM), 3120 µg/mL (≈ 7270 µM), 208 µg/mL (≈ 485 µM) and 163 µg/mL (≈ 379 µM).
Regarding `N#Cc1c(Cl)c(Cl)c(Cl)c(C#N)c1Cl` [CHLOROTHALONIL], the EC50 in the experiment with Phomopsis asparagi was found to be 4.35 µg/mL (≈ 16.4 µM); in the experiment with Sclerotinia sclerotiorum, 0.41 µg/mL (≈ 1.54 µM).
Turning to `CC(C)OC(=O)C(C(=O)OC(C)C)=C1SCCS1` [ISOPROTHIOLANE], in the experiment on Pyricularia oryzae, the EC50 worked out at 7.19 µg/mL (≈ 24.8 µM).
The compound `Cc1cc(C)nc(Nc2ccccc2)n1` [PYRIMETHANIL] registered an EC50 in the experiment on Botrytis cinerea of 0.14 µg/mL (≈ 0.703 µM).
For `CN(C)C(=S)SSC(=S)N(C)C` [THIRAM], the response with Rhizoctonia solani was half-maximal at 0.9 µg/mL (≈ 3.74 µM) (EC50).

Values taken from ChEMBL document CHEMBL3044651, “Synthesis, fungicidal activity, and structure-activity relationship of spiro-compounds containing macrolactam (macrolactone) and thiadiazoline rings” (J Agric Food Chem, 2010).
